Reference: patent US10189836B2, “Therapeutic compounds, compositions and methods of use thereof” (Genentech, Inc., priority 2015, dated 2019)

Columns and labels:
[1] = biological target: isolated recombinant JAK1 kinase domain (Homo sapiens (Human), UniProt P23458); experiment: JAK1 enzyme assay (Caliper LabChip, Ki); assay type: biochemical; conditions: isolated recombinant JAK1 kinase domain, 1.5 nM enzyme, ATP 25 μM
[2] = biological target: isolated recombinant JAK2 kinase domain (Homo sapiens (Human), UniProt O60674); experiment: JAK2 enzyme assay (Caliper LabChip, Ki); assay type: biochemical; conditions: isolated recombinant JAK2 kinase domain, 0.2 nM enzyme, ATP 25 μM
Chain of isolated recombinant JAK2 kinase domain (O60674 849-1124): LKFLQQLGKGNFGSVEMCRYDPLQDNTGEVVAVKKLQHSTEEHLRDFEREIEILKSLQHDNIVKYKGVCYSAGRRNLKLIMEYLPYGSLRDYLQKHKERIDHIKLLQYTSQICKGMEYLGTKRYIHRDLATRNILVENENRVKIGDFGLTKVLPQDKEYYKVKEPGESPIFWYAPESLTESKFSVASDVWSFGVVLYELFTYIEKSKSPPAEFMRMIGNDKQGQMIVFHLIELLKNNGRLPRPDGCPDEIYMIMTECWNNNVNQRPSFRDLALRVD

Chain of isolated recombinant JAK1 kinase domain (P23458 875-1153): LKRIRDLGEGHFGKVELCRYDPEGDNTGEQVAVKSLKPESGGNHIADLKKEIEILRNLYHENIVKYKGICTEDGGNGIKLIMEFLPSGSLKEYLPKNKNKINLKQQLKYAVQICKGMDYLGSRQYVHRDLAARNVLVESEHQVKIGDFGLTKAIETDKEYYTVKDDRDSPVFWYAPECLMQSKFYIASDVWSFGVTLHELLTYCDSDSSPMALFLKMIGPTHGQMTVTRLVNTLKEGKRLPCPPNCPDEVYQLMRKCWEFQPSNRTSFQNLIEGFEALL

SMILES	Ki [1] [nM]	Ki [2] [nM]
O=C(Cn1cc(Nc2nc3c(N4CC5CCC(C4)N5C(=O)N4CC(C(F)(F)F)C4)cccn3n2)cn1)N1CCN(C2CSC2)CC1 [Example 94, 1-[4-(thietan-3-yl)piperazin-1-yl]-2-[4-[[8-[8-[3-(trifluoromethyl)azetidine-1-carbonyl]-3,8-diazabicyclo[3.2.1]octan-3-yl]-[1,2,4]triazolo[1,5-a]pyridin-2-yl]amino]pyrazol-1-yl]ethanone]	0.6	0.4
CC(C(=O)N1CCN(C)CC1)n1cc(Nc2nc3c(N4CC5CCC(C4)N5C(=O)C4CC(C(F)(F)F)C4)cccn3n2)cn1 (centres unmarked) [Example 125, 1-(4-methylpiperazin-1-yl)-2-[4-[[8-[8-(3-(trifluoromethyl)-cyclobutanecarbonyl]-3,8-diazabicyclo[3.2.1]octan-3-yl]-[1,2,4]triazolo[1,5-a]pyridin-2-yl]amino]pyrazol-1-yl]propan-1-one]	0.6	0.4
CN1CCN(C(=O)Cn2cc(Nc3nc4c(N5CC6CCC(C5)N6S(=O)(=O)CCCC#N)cccn4n3)cn2)CC1 [Example 176, 4-[[3-[2-[[1-[2-(4-methylpiperazin-1-yl)-2-oxo-ethyl]pyrazol-4-yl]amino]-[1,2,4]triazolo[1,5-a]pyridin-8-yl]-3,8-diazabicyclo[3.2.1]octan-8-yl]sulfonyl]butanenitrile]	0.7	3.4
CN(C1CCN(C(=O)Cn2cc(Nc3nc4c(N5CC6CCC(C5)N6C(=O)N5CC(C(F)(F)F)C5)cccn4n3)cn2)CC1)C1COC1 [Example 62, 1-[4-[methyl(oxetan-3-yl)amino]piperidin-1-yl]-2-(4-[[8-(8-[[3-(trifluoromethyl)azetidin-1-yl]carbonyl]-3,8-diazabicyclo[3.2.1]octan-3-yl)-[1,2,4]triazolo[1,5-a]pyridin-2-yl]amino]-1H-pyrazol-1-yl)ethan-1-one]	0.7	0.5
CN1CCN(C(=O)Cn2cc(Nc3nc4c(N5CC6CCC(C5)N6C(=O)CC(F)(F)F)cccn4n3)cn2)CC1 [Example 12, 3,3,3-trifluoro-1-[3-[2-[[1-[2-(4-methylpiperazin-1-yl)-2-oxo-ethyl]pyrazol-4-yl]amino]-[1,2,4]triazolo[1,5-a]pyridin-8-yl]-3,8-diazabicyclo[3.2.1]octan-8-yl]propan-1-one]	0.7	1.7
CN1CCN(C(=O)Cn2cc(Nc3nc4c(N5CC6CCCC(C5)N6C(=O)N5CC(C(F)(F)F)C5)cccn4n3)cn2)CC1 [Example 122, 1-(4-methylpiperazin-1-yl)-2-[4-[[8-[9-[3-(trifluoromethyl)azetidine-1-carbonyl]-3,9-diazabicyclo[3.3.1]nonan-3-yl]-[1,2,4]triazolo[1,5-a]pyridin-2-yl]amino]pyrazol-1-yl]ethanone]	0.4	0.3
CSC1CCN(C(=O)N2C3CCC2CN(c2cccn4nc(Nc5cnn(CC(=O)N6CCN(C)CC6)c5)nc24)C3)C1 (centres unmarked) [Example 172, 1-(4-methylpiperazin-1-yl)-2-[4-[[8-[8-(3-methylsulfanylpyrrolidine-1-carbonyl)-3,8-diazabicyclo[3.2.1]octan-3-yl]-[1,2,4]triazolo[1,5-a]pyridin-2-yl]amino]pyrazol-1-yl]ethanone]	0.6	0.9
COC1(C(F)(F)F)CN(C(=O)N2C3CCC2CN(c2cccn4nc(Nc5cnn(CC(=O)N6CCN(C)CC6)c5)nc24)C3)C1 [Example 146, 2-[4-[[8-[8-[3-methoxy-3-(trifluoromethyl)azetidine-1-carbonyl]-3,8-diazabicyclo[3.2.1]octan-3-yl]-[1,2,4]triazolo[1,5-a]pyridin-2-yl]amino]pyrazol-1-yl]-1-(4-methylpiperazin-1-yl)ethanone]	6.1	6.1
COC(=O)N1CCN(CC2CCN(C(=O)Cn3cc(Nc4nc5c(N6CC7CCC(C6)N7C(=O)CCC(F)(F)F)cccn5n4)cn3)CC2)CC1 [Example 79, methyl 4-[[1-[2-[4-[[8-[8-(4,4,4-trifluorobutanoyl)-3,8-diazabicyclo[3.2.1]octan-3-yl]-[1,2,4]triazolo[1,5-a]pyridin-2-yl]amino]pyrazol-1-yl]acetyl]-4-piperidyl]methyl]piperazine-1-carboxylate]	0.8	1.6
CN1CCN(C(=O)Cn2cc(Nc3nc4c(N5CC6CCC(C5)N6C(=O)CC5CC5(F)F)cccn4n3)cn2)CC1 (centres unmarked) [Example 16, 2-(2,2-difluorocyclopropyl)-1-[3-[2-[[1-[2-(4-methylpiperazin-1-yl)-2-oxo-ethyl]pyrazol-4-yl]amino]-[1,2,4]triazolo[1,5-a]pyridin-8-yl]-3,8-diazabicyclo[3.2.1]octan-8-yl]ethanone]	1	1.8
CC(C(=O)N1CCN(C)CC1)n1cc(Nc2nc3c(N4CC5CCC(C4)N5C(=O)CCC(F)(F)F)cccn3n2)cn1 (centres unmarked) [Example 104, 4,4,4-trifluoro-1-[3-[2-[[1-[1-methyl-2-(4-methylpiperazin-1-yl)-2-oxo-ethyl]pyrazol-4-yl]amino]-[1,2,4]triazolo[1,5-a]pyridin-8-yl]-3,8-diazabicyclo[3.2.1]octan-8-yl]butan-1-one]	1.7	0.8
CN1CCN(C(=O)Cn2cc(Nc3nc4c(N5C[C@H]6CC[C@@H](C5)[C@H]6OCc5cccc(C#N)c5)cccn4n3)cn2)CC1 [Example 129, 3-[[(1S,5R)-3-[2-[[1-[2-(4-methylpiperazin-1-yl)-2-oxo-ethyl]pyrazol-4-yl]amino]-[1,2,4]triazolo[1,5-a]pyridin-8-yl]-3-azabicyclo[3.2.1]octan-8-yl]oxymethyl]benzonitrile]	0.6	2.3
CN1CCN(C(=O)Cn2cc(Nc3nc4c(N5CC6CCC(C5)N6S(=O)(=O)C5CC5)cccn4n3)cn2)CC1 [Example 177, 2-[4-[[8-(8-cyclopropylsulfonyl-3,8-diazabicyclo[3.2.1]octan-3-yl)-[1,2,4]triazolo[1,5-a]pyridin-2-yl]amino]pyrazol-1-yl]-1-(4-methylpiperazin-1-yl)ethanone]	2.1	7.5
CSc1ccccc1C(=O)N1C2CCC1CN(c1cccn3nc(Nc4cnn(CC(=O)N5CCN(C)CC5)c4)nc13)C2 [Example 115]	1	2.1
O=C(Cn1cc(Nc2nc3c(N4CC5CCC(C4)N5C(=O)N4CC(C(F)(F)F)C4)cccn3n2)cn1)N1CCC(CN2CCOCC2)CC1 [Example 121, 1-[4-(morpholinomethyl)-1-piperidyl]-2-[4-[[8-[8-[3-(trifluoromethyl)azetidine-1-carbonyl]-3,8-diazabicyclo[3.2.1]octan-3-yl]-[1,2,4]triazolo[1,5-a]pyridin-2-yl]amino]pyrazol-1-yl]ethanone]	0.7	0.7
CN1CCN(C(=O)Cn2cc(Nc3nc4c(N5CC6CCC(C5)N6S(=O)(=O)C5CCCCC5)cccn4n3)cn2)CC1 [Example 178, 2-[4-[[8-(8-cyclohexylsulfonyl-3,8-diazabicyclo[3.2.1]octan-3-yl)-[1,2,4]triazolo[1,5-a]pyridin-2-yl]amino]pyrazol-1-yl]-1-(4-methylpiperazin-1-yl)ethanone; formic acid]	1.8	1.5
CC(C(=O)N1CCN(C)CC1)n1cc(Nc2nc3c(N4CC5CCC(C4)N5C(=O)C4CC(C(F)(F)F)C4)cccn3n2)cn1 (centres unmarked) [Example 124, 1-(4-methylpiperazin-1-yl)-2-[4-[[8-[8-(3-(trifluoromethyl)-cyclobutanecarbonyl]-3,8-diazabicyclo[3.2.1]octan-3-yl]-[1,2,4]triazolo[1,5-a]pyridin-2-yl]amino]pyrazol-1-yl]propan-1-one]	1.9	3.7
CN1CCN(C(=O)Cn2cc(Nc3nc4c(N5CC6CCC(C5)N6S(=O)(=O)c5cccs5)cccn4n3)cn2)CC1 [Example 112, 1-(4-methylpiperazin-1-yl)-2-[4-[[8-[8-(2-thienylsulfonyl)-3,8-diazabicyclo[3.2.1]octan-3-yl]-[1,2,4]triazolo[1,5-a]pyridin-2-yl]amino]pyrazol-1-yl]ethanone]	0.5	0.7
CN1CCN(C(=O)Cn2cc(Nc3nc4c(N5CC6CCC(C5)N6S(=O)(=O)Cc5ccc(C(F)(F)F)cc5)cccn4n3)cn2)CC1 [Example 184, 1-(4-methylpiperazin-1-yl)-2-[4-[[8-[8-([4-(trifluoromethyl)phenyl]methylsulfonyl]-3,8-diazabicyclo[3.2.1]octan-3-yl]-[1,2,4]triazolo[1,5-a]pyridin-2-yl]amino]pyrazol-1-yl]ethanone]	1	2.3
CN1CCN(C(=O)Cn2cc(Nc3nc4c(N5C[C@H]6CC[C@@H](C5)[C@H]6OCc5ccc(F)nc5)cccn4n3)cn2)CC1 [Example 162, 1-(4-methylpiperazin-1-yl)-2-[4-[[8-[rac-(1S,5R)-8-[(6-fluoro-3-pyridyl)methoxy]-3-azabicyclo[3.2.1]octan-3-yl]-[1,2,4]triazolo[1,5-a]pyridin-2-yl]amino]pyrazol-1-yl]ethanone]	0.6	0.6
CN(C)C(=O)CN1CCN(CC2CCN(C(=O)Cn3cc(Nc4nc5c(N6CC7CCC(C6)N7C(=O)CCC(F)(F)F)cccn5n4)cn3)CC2)CC1 [Example 75, N,N-dimethyl-2-[4-[[1-[2-[4-[[8-[8-(4,4,4-trifluorobutanoyl)-3,8-diazabicyclo[3.2.1]octan-3-yl]-[1,2,4]triazolo[1,5-a]pyridin-2-yl]amino]pyrazol-1-yl]acetyl]-4-piperidyl]methyl]piperazin-1-yl]acetamide]	1.4	3.9
CN1CCN(C(=O)Cn2cc(Nc3nc4c(N5CC6CCC(C5)N6S(=O)(=O)c5ccccc5C#N)cccn4n3)cn2)CC1 [Example 147, 2-[[3-[2-[[1-[2-(4-methylpiperazin-1-yl)-2-oxo-ethyl]pyrazol-4-yl]amino]-[1,2,4]triazolo[1,5-a]pyridin-8-yl]-3,8-diazabicyclo[3.2.1]octan-8-yl]sulfonyl]benzonitrile]	0.4	0.3
